Like-named read-outs stand apart in the source and are kept apart here.

The values that follow come from patent US12473298B2, “Amide compounds, preparation method therefor, and use thereof in the medical field” (Shanghai Synergy Pharmaceutical Sciences Co., Ltd., priority 2019, dated 2025).

In one data set the target is wild-type EZH2 (Homo sapiens (Human), UniProt Q15910). The experiment in a line: radiometric assay, activity to wild-type EZH2 of PRC2. Conditions: read-out: Wild-type EZH2 IC50 Nanomoles per Liter.
wild-type EZH2, sequence (Q15910 whole entry): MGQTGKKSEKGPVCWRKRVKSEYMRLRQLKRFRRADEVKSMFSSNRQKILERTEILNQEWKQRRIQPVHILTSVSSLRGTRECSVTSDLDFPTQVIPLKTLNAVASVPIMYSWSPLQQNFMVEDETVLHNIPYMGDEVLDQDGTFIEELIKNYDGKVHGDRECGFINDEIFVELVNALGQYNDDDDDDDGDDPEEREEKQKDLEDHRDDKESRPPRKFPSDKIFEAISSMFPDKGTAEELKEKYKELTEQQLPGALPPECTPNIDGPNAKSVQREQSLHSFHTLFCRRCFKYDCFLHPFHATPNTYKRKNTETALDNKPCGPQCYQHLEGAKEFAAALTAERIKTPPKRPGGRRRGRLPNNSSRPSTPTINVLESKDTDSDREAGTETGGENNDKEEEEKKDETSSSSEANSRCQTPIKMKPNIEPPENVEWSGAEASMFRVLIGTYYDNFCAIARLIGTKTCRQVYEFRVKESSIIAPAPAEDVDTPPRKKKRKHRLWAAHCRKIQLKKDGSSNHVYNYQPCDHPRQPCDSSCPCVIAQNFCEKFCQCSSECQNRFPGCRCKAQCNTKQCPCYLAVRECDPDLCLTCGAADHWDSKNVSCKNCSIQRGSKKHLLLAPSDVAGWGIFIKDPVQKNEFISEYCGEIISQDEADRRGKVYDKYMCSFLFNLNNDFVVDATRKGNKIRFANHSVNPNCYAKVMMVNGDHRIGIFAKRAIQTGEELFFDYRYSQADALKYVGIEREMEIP
wild-type EZH2, sequence (O75530 whole entry partner): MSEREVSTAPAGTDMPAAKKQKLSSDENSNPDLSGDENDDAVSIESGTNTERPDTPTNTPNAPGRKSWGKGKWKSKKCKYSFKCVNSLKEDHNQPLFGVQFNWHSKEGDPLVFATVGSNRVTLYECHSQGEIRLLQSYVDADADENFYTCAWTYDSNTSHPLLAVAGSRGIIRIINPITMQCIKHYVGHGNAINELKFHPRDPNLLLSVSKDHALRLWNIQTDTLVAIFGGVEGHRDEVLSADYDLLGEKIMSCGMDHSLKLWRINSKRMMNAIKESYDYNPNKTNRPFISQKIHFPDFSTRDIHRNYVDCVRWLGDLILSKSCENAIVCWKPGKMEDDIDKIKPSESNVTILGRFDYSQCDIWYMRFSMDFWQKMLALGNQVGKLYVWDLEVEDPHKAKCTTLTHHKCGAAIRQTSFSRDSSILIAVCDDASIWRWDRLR
wild-type EZH2, sequence (Q15022 whole entry partner): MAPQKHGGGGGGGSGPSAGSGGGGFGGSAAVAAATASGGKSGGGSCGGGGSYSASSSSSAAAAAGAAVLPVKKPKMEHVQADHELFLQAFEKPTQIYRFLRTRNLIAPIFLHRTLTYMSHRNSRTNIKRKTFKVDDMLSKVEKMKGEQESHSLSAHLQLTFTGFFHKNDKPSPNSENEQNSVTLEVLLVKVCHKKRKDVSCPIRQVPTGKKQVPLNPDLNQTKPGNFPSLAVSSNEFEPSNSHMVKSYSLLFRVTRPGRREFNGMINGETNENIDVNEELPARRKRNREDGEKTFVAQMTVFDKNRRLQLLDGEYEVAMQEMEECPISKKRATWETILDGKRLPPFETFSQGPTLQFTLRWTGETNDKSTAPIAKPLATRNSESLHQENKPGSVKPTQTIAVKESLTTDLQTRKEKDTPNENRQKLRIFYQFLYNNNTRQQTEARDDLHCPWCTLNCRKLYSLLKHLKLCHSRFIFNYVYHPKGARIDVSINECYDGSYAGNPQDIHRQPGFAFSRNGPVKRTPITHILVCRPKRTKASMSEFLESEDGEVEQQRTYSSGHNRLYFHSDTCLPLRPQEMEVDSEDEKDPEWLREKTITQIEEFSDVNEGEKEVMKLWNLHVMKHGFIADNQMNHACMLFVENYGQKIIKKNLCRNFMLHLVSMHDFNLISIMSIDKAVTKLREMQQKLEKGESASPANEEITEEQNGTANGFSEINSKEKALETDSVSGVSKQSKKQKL
The subject of data set [1] is human diffuse large B-cell lymphoma cells (Karpas 422 cell). The experiment in a line: Karpas 422 cell proliferation, Calcein AM staining. It counts as cell-based. The settings on record: Homo sapiens, KARPAS-422; data of 14th day; read-out: Karpas422 Proliferation IC50 Nanomoles per Liter.
Data set [2] deals with human diffuse large cell lymphoma B lymphocytes (Pfeiffer cell). Briefly: Pfeiffer cell proliferation, Calcein AM staining. In kind it is cell-based. Conditions: Homo sapiens, Pfeiffer; data of 14th day; read-out: Pfeiffer Proliferation IC50 Nanomoles per Liter.
Excerpt: The diffuse large cell lymphoma B lymphocytes (Pfeiffer cells) were collected and counted when growing well.
A further data set has as its target Mutant type EZH2(Y641N) (Homo sapiens (Human), UniProt Q15910, Y641N). The experiment in a line: AlphaLISA, mutant type PRC2 complex EZH2(Y641N). It counts as biochemical. Conditions: read-out: Mutant type EZH2(Y641N) IC50 Nanomoles per Liter. Background: Alpha assays give light when donor and acceptor beads are brought close together.
The next data set concerns the target Mutant type EZH2(Y641F) (Homo sapiens (Human), UniProt Q15910, Y641F). Briefly: AlphaLISA, mutant type PRC2 complex EZH2(Y641F). It counts as biochemical. Conditions: read-out: Mutant type EZH2(Y641F) IC50 Nanomoles per Liter.
In another data set the target is Mutant type EZH2(A677G) (Homo sapiens (Human), UniProt Q15910, A677G). Briefly: AlphaLISA, mutant type PRC2 complex EZH2(A677G). In kind it is biochemical. Conditions: read-out: Mutant type EZH2(A677G) IC59 Nanomoles per Liter.
Mutant type EZH2(A677G), sequence (Q15910 whole entry A677G): as the sequence (Q15910 whole entry) above, with A677G counted along it
Mutant type EZH2(A677G), sequence (O75530 whole entry partner): as the sequence (O75530 whole entry partner) above
Mutant type EZH2(A677G), sequence (Q15022 whole entry partner): as the sequence (Q15022 whole entry partner) above
Mutant type EZH2(A677G), sequence (Q09028 whole entry partner): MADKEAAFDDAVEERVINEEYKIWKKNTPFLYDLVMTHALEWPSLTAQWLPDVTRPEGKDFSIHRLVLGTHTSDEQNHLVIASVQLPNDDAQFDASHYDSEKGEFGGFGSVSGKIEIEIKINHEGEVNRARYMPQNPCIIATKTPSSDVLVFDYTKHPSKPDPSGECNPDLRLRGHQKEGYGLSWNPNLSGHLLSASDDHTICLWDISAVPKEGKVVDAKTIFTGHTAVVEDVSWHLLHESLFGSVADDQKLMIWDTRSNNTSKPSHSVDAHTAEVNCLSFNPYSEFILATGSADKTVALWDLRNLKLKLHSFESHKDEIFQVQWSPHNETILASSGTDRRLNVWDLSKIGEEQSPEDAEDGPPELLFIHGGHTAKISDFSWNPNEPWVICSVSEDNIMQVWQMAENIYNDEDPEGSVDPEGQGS
Mutant type EZH2(A677G), sequence (Q6ZN18 whole entry partner): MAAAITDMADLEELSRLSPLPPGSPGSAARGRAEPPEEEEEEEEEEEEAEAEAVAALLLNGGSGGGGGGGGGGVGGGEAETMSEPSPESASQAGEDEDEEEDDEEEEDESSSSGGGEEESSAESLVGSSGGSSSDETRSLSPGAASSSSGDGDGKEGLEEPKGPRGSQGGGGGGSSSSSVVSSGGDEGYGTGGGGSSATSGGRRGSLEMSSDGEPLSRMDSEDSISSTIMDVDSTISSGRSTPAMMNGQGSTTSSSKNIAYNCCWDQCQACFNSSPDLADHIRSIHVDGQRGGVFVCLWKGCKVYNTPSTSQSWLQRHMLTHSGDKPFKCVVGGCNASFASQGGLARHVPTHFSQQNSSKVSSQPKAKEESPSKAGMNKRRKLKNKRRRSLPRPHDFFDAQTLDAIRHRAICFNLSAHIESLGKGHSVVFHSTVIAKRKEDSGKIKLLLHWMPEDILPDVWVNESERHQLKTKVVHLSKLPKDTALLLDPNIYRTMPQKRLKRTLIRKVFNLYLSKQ
Data set [3] is described as follows: Pharmacokinetic experiment in rats. In kind it is in vivo, SD rats. Conditions: for AUC: read-out: Area Curve (AUC, ng/mL · h). As for the experimental part: A certain amount of compound was weighted and dissolved in 0.1% Tween under vortex and ultrasound, and 0.5% carboxymethyl cellulose sodium (CMC-NA) solution was added to form a uniform solution.

Mutant type EZH2(Y641F), sequence (Q15910 whole entry Y641F): as the sequence (Q15910 whole entry) above, with Y641F counted along it
Mutant type EZH2(Y641F), sequence (O75530 whole entry partner): as the sequence (O75530 whole entry partner) above
Mutant type EZH2(Y641F), sequence (Q15022 whole entry partner): as the sequence (Q15022 whole entry partner) above
Mutant type EZH2(Y641F), sequence (Q09028 whole entry partner): as the sequence (Q09028 whole entry partner) above
Mutant type EZH2(Y641F), sequence (Q6ZN18 whole entry partner): as the sequence (Q6ZN18 whole entry partner) above
Mutant type EZH2(Y641N), sequence (Q15910 whole entry Y641N): as the sequence (Q15910 whole entry) above, with Y641N counted along it
Mutant type EZH2(Y641N), sequence (O75530 whole entry partner): as the sequence (O75530 whole entry partner) above
Mutant type EZH2(Y641N), sequence (Q15022 whole entry partner): as the sequence (Q15022 whole entry partner) above
Mutant type EZH2(Y641N), sequence (Q09028 whole entry partner): as the sequence (Q09028 whole entry partner) above
Mutant type EZH2(Y641N), sequence (Q6ZN18 whole entry partner): as the sequence (Q6ZN18 whole entry partner) above
Description for wild-type EZH2: 25 μL of reaction solution was transferred to a scintillation plate, which was incubated at room temperature for 1 hour (h) and washed with deionized water and 0.1% Tween 20 for three times. A PerkinElmer liquid scintillation/luminescence counter was used to read the value, and GraphPad Prism 5 was used to calculate the median inhibitory concentration (IC50) of the compounds.

For `CCN(c1cc(-c2ccc3c(c2)NC(=O)C32CCOCC2)cc(C(=O)NCc2c(C)cc(C)[nH]c2=O)c1C)C1CCC(N(C)C)CC1` (stereo not drawn) [Example 98, N-((4,6-Dimethyl-2-oxo-1,2-dihydropyridin-3-yl)methyl)-3-((ethyl)(4-dimethylamino-cyclohexyl)amino)-2-methyl-5-(2-oxo-2′,3′,5′,6′-tetrahydrospiro[dihydroindole-3,4′-pyran]-6-yl)benzamide], the IC50 is 0.67 nM at wild-type EZH2; 2.23 nM in data set [1]; 1.06 nM in data set [2]; 0.21 nM at Mutant type EZH2(Y641N); 0.36 nM at Mutant type EZH2(Y641F).
Turning to `CCN(c1cc(-c2ccc3c(c2)NC(=O)C32CCOCC2)cc(C(=O)NCc2c(C)cc(C)[nH]c2=O)c1C)C1CCS(=O)(=O)CC1` [Example 96, N-((4,6-Dimethyl-2-oxo-1,2-dihydropyridin-3-yl)methyl)-3-((ethyl)(1,1-dioxotetrahydro-2H-thiapyran-4-yl)amino)-2-methyl-5-(2-oxo-2′,3′,5′,6′-tetrahydrospiro[dihydroindole-3,4′-pyran]-6-yl)benzamide], the IC50 on Mutant type EZH2(A677G) is 0.57 nM; on wild-type EZH2, 1.24 nM; in data set [1], 4.57 nM; in data set [2] it was 3.63 nM; on Mutant type EZH2(Y641F), 0.88 nM. Moreover, the AUC in data set [3] (male, SD, rat, plasma, rats, Intravenous-Dose 4 mg/kg) was 990 ng·h/mL; in data set [3] (male, SD, rat, plasma, rats, Oral-Dose 20 mg/kg) it was 1540 ng·h/mL. Moreover, the half-life in data set [3] (male, SD, rat, plasma; rats, Intravenous-Dose 4 mg/kg; read-out: Half life T1/2, h) (converted)) is 1.64 h. Besides, the Cmax in data set [3] (male, SD, rat, plasma, rats, Oral-Dose 20 mg/kg, read-out: Blood Drug level (Cmax, ng/mL)) turned out to be 436 ng/mL. In addition, in data set [3] (male, SD, rat, plasma, rats, oral 20 mg/kg vs intravenous 4 mg/kg, read-out: Bioavailability (P %)), the bioavailability (in general, dose-corrected exposure relative to a reference, in per cent) turned out to be 31.1%.
As for `CCN(c1cc(-c2ccc3c(c2)NC(=O)C32CCOCC2)cc(C(=O)NCc2c(OC)cc(C)[nH]c2=O)c1C)C1CCC(N(C)C2COC2)CC1` (stereo not drawn) [Example 122, 3-(Ethyl(4-(methyl(oxetan-3-yl)amino)cyclohexyl)amino)-N-((4-methoxy-6-methyl-2-oxo-1,2-dihydropyridin-3-yl)methyl)-2-methyl-5-(2-oxo-2′,3′,5′,6′-tetrahydrospiro[dihydroindole-3,4′-pyran]-6-yl)benzamide], the IC50 on wild-type EZH2 is 0.87 nM; in data set [1] it was 2.48 nM; in data set [2] it was 2.91 nM; on Mutant type EZH2(Y641N), 0.21 nM.
As to `CCN(c1cc(-c2ccc3c(c2)NC(=O)C32CCOCC2)cc(C(=O)NCc2c(C)cc(C)[nH]c2=O)c1C)C1CCN(C2COC2)CC1` [Example 82, N-((4,6-dimethyl-2-oxo-1,2-dihydropyridin-3-yl)methyl)-2-methyl-3-(ethyl(1-(oxetan-3-yl)piperidin-4-yl)amino)-5-(2-oxo-2′,3′,5′,6′-tetrahydrospiro[dihydroindole-3,4′-pyran]-6-yl)benzamide], the IC50 was 0.83 nM at wild-type EZH2; 3.62 nM in data set [1]; 2.85 nM in data set [2]; 0.16 nM on Mutant type EZH2(Y641N); 0.52 nM on Mutant type EZH2(Y641F).
As for `CCN(c1cc(-c2ccc3c(c2)CCC2(CCOCC2)C3=O)cc(C(=O)NCc2c(C)cc(C)[nH]c2=O)c1C)C1CCOCC1` [Example 106, N-((4,6-Dimethyl-2-oxo-1,2-dihydropyridin-3-yl)methyl)-3-(ethyl(tetrahydro-2H-pyran-4-yl)amino)-2-methyl-5-(1-oxo-2′,3,3′,4,5′,6′-hexahydro-1H-spiro[naphthalene-2,4′-pyran]-6-yl)benzamide], the IC50 was 0.71 nM at Mutant type EZH2(A677G); 0.98 nM at wild-type EZH2; 3.89 nM in data set [1]; 3.41 nM in data set [2]; 0.82 nM on Mutant type EZH2(Y641F).
As for `CCN1CCC2(CC1)C(=O)Nc1cc(-c3cc(C(=O)NCc4c(C)cc(C)[nH]c4=O)c(C)c(N(CC)C4CCOCC4)c3)ccc12` [Example 85, N-((4,6-dimethyl-2-oxo-1,2-dihydropyridin-3-yl)methyl)-3-(ethyl(tetrahydro-2H-pyran-4-yl)amino)-2-methyl-5-(1′-ethyl-2-oxospiro[dihydroindole-3,4′-piperidine]-6-yl)benzamide], the IC50 is 0.38 nM at Mutant type EZH2(A677G); 0.81 nM at wild-type EZH2; 2.85 nM in data set [1]; 2.42 nM in data set [2]; 0.82 nM at Mutant type EZH2(Y641F).
Consider `CCN(c1cc(-c2ccc3c(c2)NC(=O)C32CCOCC2)cc(C(=O)NCc2c(C)cc(C)[nH]c2=O)c1C)C1CCSCC1` [Example 95, N-((4,6-Dimethyl-2-oxo-1,2-dihydropyridin-3-yl)methyl)-3-(ethyl(tetrahydro-2H-thiapyran-4-yl)amino)-2-methyl-5-(2-oxo-2′,3′,5′,6′-tetrahydrospiro[dihydroindole-3,4′-pyran]-6-yl)benzamide], for which the IC50 on Mutant type EZH2(A677G) is 0.48 nM; on wild-type EZH2 it was 0.78 nM; in data set [1] it was 2.79 nM; in data set [2], 2.35 nM; on Mutant type EZH2(Y641F) it was 0.53 nM.
As for `CCN(c1cc(-c2cc3c(cc2F)C2(CCOCC2)CC3)cc(C(=O)NCc2c(OC)cc(C)[nH]c2=O)c1C)C1CCOCC1` [Example 17, 3-(ethyl(tetrahydro-2H-pyran-4-yl)amino)-5-(6-fluoro-2,2′,3,3′,5′,6′-hexahydrospiro[indene-1,4′-pyran]-5-yl)-N-((4-methoxy-6-methyl-2-carbonyl-1,2-dihydropyridin-3-yl)methyl)-2-methylbenzamide], the IC50 at wild-type EZH2 is 1.1 nM; in data set [1], 3.09 nM; in data set [2], 2.78 nM; on Mutant type EZH2(Y641N), 0.3 nM.
As for `CCN(c1cc(-c2ccc3c(c2)C(=O)C2(CCOCC2)C3)cc(C(=O)NCc2c(C)cc(C)[nH]c2=O)c1C)C1CCOCC1` [Example 78, N-((4,6-dimethyl-2-oxo-1,2-dihydropyridin-3-yl)methyl)-3-(ethyl(tetrahydro-2H-pyran-4-yl)amino)-2-methyl-5-(1-oxo-1,2′,3,3′,5′,6′-hexahydrospiro[indene-2,4′-pyran]-6-yl)benzamide], the IC50 is 0.81 nM on wild-type EZH2, 2.21 nM in data set [1], 1.89 nM in data set [2] and 0.23 nM at Mutant type EZH2(Y641N).
On to `CCN(c1cc(-c2ccc3c(c2)NC(=O)C32CCS(=O)(=O)CC2)cc(C(=O)NCc2c(C)cc(C)[nH]c2=O)c1C)C1CCOCC1` [Example 90, N-((4,6-dimethyl-2-oxo-1,2-dihydropyridin-3-yl)methyl)-5-(1′,1′-dioxo-2-oxo-2′,3′,5′,6′-tetrahydrospiro[dihydroindole-3,4′-thiapyran]-6-yl)-3-(ethyl(tetrahydro-2H-pyran-4-yl)amino)-2-methylbenzamide], for which the IC50 on Mutant type EZH2(A677G) is 0.58 nM; on wild-type EZH2 it was 1.42 nM; in data set [1], 2.83 nM; in data set [2], 2.52 nM; on Mutant type EZH2(Y641F), 0.73 nM.
Taken in the same sequence, the figures for `CCN(c1cc(-c2ccc3c(c2)NC(=O)C32CCOCC2)cc(C(=O)NCc2c(C)cc(C)[nH]c2=O)c1C)C1CCOCC1F` (stereo not drawn) [Example 103, N-((4,6-Dimethyl-2-oxo-1,2-dihydropyridin-3-yl)methyl)-3-(ethyl(3-fluoro-tetrahydro-2H-pyran-4-yl)amino)-2-methyl-5-(2-oxo-2′,3′,5′,6′-tetrahydrospiro[dihydroindole-3,4′-pyran]-6-yl)benzamide] were 0.52 nM, 0.92 nM, 0.53 nM, 0.36 nM and 0.63 nM.
